In PubChem BioAssay AID493102 (Broad Institute, 2011) one finds AC50 data, which are given here for 70 compounds.

The experiment concerns SK-MEL-5 TRPM1-promoter luciferase reporter, 24 h. The experiment is described as follows: reducers of TRPM1 reporter luminescence, concentration series – cell-based, SK-MEL-5, cherry-picked, set 4, MITF inhibitor project, dose response (AID 493102).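 Note: actives lower the luciferase signal so the potency reflects inhibition of reporter expression.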

SMILES strings stand for the structures.

With `CN(C(=O)/C=C/c1ccc([N+](=O)[O-])s1)c1ccccc1`, the AC50 is 9.11 µM. `O=C1CN(C(=O)Cn2ncc(Cl)c(Cl)c2=O)c2ccccc2N1`: the AC50 is 8.67 µM.

As for `Cc1ccc(C#CC[N+]2(CC#Cc3ccc(C)cc3)CCCCC2)cc1`, the AC50 is 3.95 µM. `Cc1ccc2c(C(=O)CCl)c(C)[nH]c2c1`: the AC50 was 8.17 µM.

Turning to `CCN1CCCC1CNC(=O)c1ccc2c(c1)NC(=O)/C(=C\c1ccc(OC)c(OC)c1)S2` (stereo not given), the AC50 was 13.8 µM. Regarding `CCOC(=O)c1c(C)oc2c(F)c(F)c(F)c(F)c2c1=O`, the AC50 was 2.32 µM.

Consider `O=C(N/N=C/c1ccc([N+](=O)[O-])o1)c1sc2ccccc2c1Cl`, for which the concentration at half-maximal activity (AC50) was 4.61 µM. Then `O=C(COC(=O)c1ccc(F)c([N+](=O)[O-])c1)NC(=O)NCc1ccccc1`, with 13.6 µM; and `CCSCCc1nnc(NC(=O)Nc2cccc(C(F)(F)F)c2)s1`, with 8.99 µM; and `C/C(=N\NC(=O)Cc1ccc(Cl)cc1)c1ccccn1`, with 4.22 µM. As for `CCCCN(C)CC(O)Cn1cc(/C=C/C(=O)c2cccs2)c2ccccc21` (stereo not given), the AC50 is 14.3 µM.

As to `Cc1cc(C)nc(S/C=C/C(=O)c2ccccc2F)n1`, the AC50 was 5.38 µM. In the case of `Cn1c(/C=C/c2cccc([N+](=O)[O-])c2)c([N+](=O)[O-])c(=O)n(C)c1=O`, the AC50 is 27.8 µM. Turning to `CCOC(=O)CCc1ccc(NC(=O)/C=C/c2ccc([N+](=O)[O-])o2)cc1`, the AC50 is 6.83 µM.

For the compound `CC1CC(C)CN(C(=O)/C=C/c2ccc([N+](=O)[O-])s2)C1` (stereo not given), the AC50 is 11.9 µM. The result for `CN(C)S(=O)(=O)c1ccc(-c2csc(N/N=C/c3ccc(O)cc3)n2)cc1` reads 4.6 µM; that for `CCCCCn1c(=O)c(C(=O)Nc2cnccn2)c(O)c2ccccc21`, 5.93 µM. As to `CC(C)(C)c1ccc(OCCCNCc2ccccc2)cc1`, the AC50 is 18.4 µM. The result for `COc1ccc2oc(C(=O)Nc3ccc(S(=O)(=O)N(C)C4CCN(C)CC4)cc3)c(C)c2c1` reads 13 µM; that for `CC(Oc1ccc(F)cc1)C(=O)Nc1nc(-c2ccccn2)cs1` (stereo not given), 9.42 µM; that for `O=C(CNc1cccc([N+](=O)[O-])c1)N/N=C/c1ccc([N+](=O)[O-])o1`, 8.63 µM. In the case of `CCOc1ccc(NC(=O)Nc2cccc(C(=O)O)c2)cc1`, the AC50 was 1.53 µM.

Consider `CCC(=O)Nc1cc2nn(-c3ccc(C)cc3)nc2cc1C`, for which the AC50 is 4.15 µM. For the compound `CCOC(=O)c1ccc(NC(=O)c2nc(S(=O)(=O)Cc3ccccc3)ncc2Cl)cc1`, the AC50 was 9.92 µM.

`COc1cc2c(cc1O)C(SC)=NC(C)(C)C2`: the AC50 was 11.3 µM. Take `CCOc1ccc(-n2c(O)c(/C=N/Nc3nc(C)cc(C)n3)c3ccccc3c2=O)cc1`: the AC50 is 3.48 µM. The result for `O=C1C=CC(=C(c2ccc(O)cc2)c2ccc(O)cc2)C=C1` reads 9.92 µM.

Take `CCOC(=O)Cn1c(=NC(=O)c2ccc([N+](=O)[O-])s2)sc2ccccc21`: the AC50 was 3.5 µM. Consider `O=C(Cn1ncc(Cl)c(Cl)c1=O)N1CCN(Cc2ccccc2)CC1`, for which the AC50 was 10.9 µM. Then `COc1ccc(C(=O)Nc2ccc(C)cn2)c(OC)c1`, with 3.7 µM; and `CCN(CC)CCNC(=O)c1ccc(NC(=O)c2cccc(S(=O)(=O)N3c4ccccc4CC3C)c2)cc1` (stereo not given), with 10.5 µM. Then `CS(=O)(=O)c1nc(-c2ccc(F)cc2)cc(C(F)(F)F)n1`, with 7.2 µM; and `CCC(=O)NC(c1ccccc1OC)c1ccc2cccnc2c1O` (stereo not given), with 6.7 µM. On to `CC(C)CN=C(NS(=O)(=O)c1ccccc1)C(Cl)(Cl)Cl`, for which the AC50 was 11.1 µM. Consider `CC(C)(C)c1ccc(C(=O)Nc2sc3c(c2C(=O)O)CCC3)cc1`, for which the AC50 is 2.09 µM.

In the case of `O=C(Nc1ccccc1N1CCOCC1)c1ccc([N+](=O)[O-])o1`, the concentration at half-maximal activity (AC50) was 11.9 µM. Then `CCOc1ccc(OCc2ccc(C(=O)N/N=C(\C)c3ccccn3)cc2)cc1`, with 3.64 µM; and `C=CCSC(=S)NC1CCS(=O)(=O)C1` (stereo not given), with 20.7 µM; and `CCCC(=O)N1CCN(c2ccc(NC(=O)c3ccc([N+](=O)[O-])o3)cc2Cl)CC1`, with 7.65 µM. Then `O=C(COC(=O)c1ccc[nH]c1=O)Nc1ccc(N2CCCCC2)cc1`, with 1.03 µM.

With `Cc1ccccc1OCc1n(CC(=O)OC2CC(C)CCC2C(C)C)c2ccccc2[n+]1C` (stereo not given), the AC50 is 7.52 µM. Then `CC(/C=N/NC(=O)c1cc(-c2ccncc2)nc2ccccc12)=C\c1ccco1`, with 2.4 µM; and `COc1cccc(C(=O)Oc2c(CN3CCOCC3)cc(Cl)c3cccnc23)c1`, with 9.89 µM; and `CC[n+]1c(-c2ccccc2)c2cc(N)ccc2c2ccc(N)cc21`, with 2.42 µM. Turning to `CCOc1ccc2nc(C)cc(Nc3cccc([N+](=O)[O-])c3)c2c1`, the AC50 is 17.8 µM. Then `CN=c1scc(-c2ccccc2F)n1/N=C/c1ccc[nH]1`, with 0.019 µM. `CN(C)c1nc(-c2ccccn2)nnc1-c1ccccc1`: the AC50 was 6.17 µM.

Consider `CC(C)(C)C(=O)Cn1ncc(Br)c(Br)c1=O`, for which the AC50 was 3.92 µM. Regarding `O=C1NC2c3c(I)sc(I)c3C(=O)C2O1` (stereo not given), the AC50 is 15.5 µM.

Consider `Cc1ccc(S(=O)(=O)Nc2cccc3cccnc23)cc1`, for which the AC50 is 5.55 µM. Turning to `COc1cccc(NC(=O)c2cc3c(=O)n4ccccc4nc3n(CC(C)C)c2=N)c1`, the AC50 was 7.02 µM. Consider `CC(C)c1oc(=O)cc2c1[C@@H](O)[C@H]1OC(=O)[C@@]3(C)C[C@@H](O)[C@@H](O)[C@@]2(C)C13` (stereo not given in full), for which the AC50 was 1.63 µM. Turning to `CC1CCCC(NCC(O)COC(c2ccc(F)cc2)c2ccc(F)cc2)C1C` (stereo not given), the AC50 is 10.8 µM.

Take `CC(=O)Nc1nc(C)c(-c2csc(Nc3cccc(C(C)=O)c3)n2)s1`: the AC50 is 8.38 µM. As to `Cc1ccccc1Cn1c(=N)n(CC(=O)c2ccc([N+](=O)[O-])cc2)c2ccccc21`, the concentration at half-maximal activity (AC50) was 5.63 µM. In the case of `CCOc1ccc(-c2noc(CCC(=O)O)n2)cc1`, the AC50 was 2.61 µM.

As to `Cc1cc(C)c(C#N)c(SCc2nnc(-c3ccccc3)o2)n1`, the AC50 was 0.024 µM.

For the compound `O=C1NC(=O)N(c2ccccc2)C(=O)/C1=C/C=C/c1ccco1`, the AC50 was 8.29 µM. The result for `COc1ccc(C(=O)/C=C/Nc2ccccn2)cc1` reads 3.72 µM; that for `CCC(=O)N1CCN(c2ccc(NC(=O)c3ccc([N+](=O)[O-])o3)cc2)CC1`, 8.69 µM.

As to `O=C(NCc1ccco1)c1nc2c(nnn2Cc2ccccc2Cl)c(=O)[nH]1`, the AC50 is 14.4 µM.

For `O=C(CCl)N1CCN(S(=O)(=O)c2ccc3c(c2)CCC3)CC1`, the AC50 is 20.8 µM. `CCOC(=O)C(=Cc1ccc(-n2ccnc2)cc1)C(=O)OCC`: the AC50 was 9.38 µM. `Cc1ccc(-n2[nH]c(=O)c(-c3ccccn3)c2C)cc1`: the AC50 is 3.23 µM. On to `COc1ccc(C(=O)C(CN2CCOCC2)c2ccccc2)cc1` (stereo not given), for which the half-maximal activity concentration (AC50) is 7.29 µM. For the compound `COc1cc(OC)cc(-c2oc(=O)c3cc(OC)c(OC)cc3c2C(F)(F)F)c1`, the AC50 is 12.8 µM. Then `O=c1c(Cl)c(Cl)cnn1Cc1ccc(F)cc1`, with 8.9 µM; and `CC1=CC2/C=C(\C)CCC(O)C(O)/C=C/C(=O)C23C(=O)NC(CC(C)C)C3C1C` (stereo not given), with 6.58 µM.

For the compound `COc1cc(/C=N/NS(=O)(=O)c2ccc3ccccc3c2)ccc1OCc1ccc(C(=O)O)cc1`, the concentration at half-maximal activity (AC50) was 4.78 µM. For the compound `O=C(CNC(=O)c1cccc(F)c1)N/N=C/c1ccc([N+](=O)[O-])s1`, the AC50 is 7.45 µM.
